Laboratory results taken from patent US20140274688A1, “MOLECULES HAVING CERTAIN PESTICIDAL UTILITIES, AND INTERMEDIATES, COMPOSITIONS, AND PROCESSES RELATED THERETO” (DOW AGROSCIENCES LLC, priority 2013, published 2014).

Assays:
[1] = test system: Beet Armyworm (Spodoptera exigua) ("BAW"); assay: Bioassay on Beet Armyworm (BAW), 128-well diet tray assay, percent mortality; assay type: in vivo; details: for BAW rating (percent mortality class): Beet Armyworm, 128-well diet tray assay
Excerpt: (§1) Bioassays on Beet Armyworm (Spodoptera exigua) (“BAW”) and Cabbage Looper (Trichoplusia ni) (“CL”)
(§2) BAW has few effective parasites, diseases, or predators to lower its population. BAW infests many weeds, trees, grasses, legumes, and field crops. In various places, it is of economic concern upon asparagus, cotton, corn, soybeans, tobacco, alfalfa, sugar beets, peppers, tomatoes, potatoes, onions, peas, sunflowers, and citrus, among other plants. The Cabbage Looper is a member of the moth family Noctuidae. It is found throughout the world. It is attacks cabbage, cauliflower, broccoli, Brussel sprouts, tomatoes, cucumbers, potatoes, kale, turnips, mustard, peppers, eggplant, watermelons, melons, squash, cantaloupe, peas, beans, collards, lettuce, spinach, celery, parsley, beets, peas, alfalfa, soybeans, and cotton. This species is very destructive to plants due to its voracious consumption of leaves. In the case of cabbage, however, they feed not only on the wrapper leaves, but also may bore into the developing head. The larvae consume three times their weight in plant material daily. The feeding sites are marked by large accumulations of sticky, wet fecal material.
(§3) Consequently, because of the above factors control of these pests is important.
(§4) Certain molecules disclosed in this document were tested against BAW and CEW using procedures described in the following examples. In the reporting of the results, the “BAW & CL Rating Table” was used (See Table Section).
(§5) Trays were covered with a clear self-adhesive cover and held at 25° C., 14:10 light-dark for five to seven days. Percent mortality was recorded for the larvae in each well; activity in the eight wells was then averaged. The results are indicated in the table entitled “Table ABC: Biological Results” (See Table Section).

[2] = test system: Cabbage Looper (Trichoplusia ni) ("CL"); assay: Bioassay on Cabbage Looper (CL), 128-well diet tray assay, percent mortality; assay type: in vivo; details: for CL rating (percent mortality class): Cabbage Looper, 128-well diet tray assay; for pest or weed control at 50 µg/cm2: Trichoplusia ni, read-out: CL
Excerpt: as §1, §2, §3, §4
Bioassays on Cabbage Looper in CL
as §5

With CC(C)c1ccccc1N1C(=O)CS/C1=N\C(=O)NCCc1ccc(-c2ncn(-c3ccc(OC(F)(F)F)cc3)n2)cc1 [F1, (Z)-1-(3-(2-isopropylphenyl)-4-oxothiazolidin-2-ylidene)-3-(4-(1-(4-(trifluoromethoxy)phenyl)-1H-1,2,4-triazol-3-yl)phenethyl)urea] the “BAW rating (percent mortality class)” value [1] was “A (50-100)” and the “CL rating (percent mortality class)” value [2] was “A (50-100)”.

In the case of CC(Cc1ccc(-c2ncn(-c3ccc(OC(F)(F)F)cc3)n2)cc1)NC(=O)NC(=S)Nc1ccccc1C(C)C (centres unmarked) [F4, N-[2-(propan-2-yl)phenyl]-N′-[1-(4-{1-[4-(trifluoromethoxy)phenyl]-1H-1,2,4-triazol-3-yl}phenyl)propan-2-yl]dicarbonimidothioic diamide], the “BAW rating (percent mortality class)” value [1] is reported as “A (50-100)” and the “CL rating (percent mortality class)” value [2] is reported as “A (50-100)”.

For Cc1ccc(C(C)C)c(N2C(=O)CS/C2=N\C(=O)NC(C)Cc2ccc(-c3ncn(-c4ccc(OC(F)(F)F)cc4)n3)cc2)c1 (centres unmarked) [F8, (Z)-1-(3-(2-isopropyl-5-methylphenyl)-4-oxothiazolidin-2-ylidene)-3-(1-(4-(1-(4-(trifluoromethoxy)phenyl)-1H-1,2,4-triazol-3-yl)phenyl)propan-2-yl)urea], the “BAW rating (percent mortality class)” value [1] was “A (50-100)” and the “CL rating (percent mortality class)” value [2] was “A (50-100)”.

With CC(C)c1ccccc1NC(=S)NC(=O)N/C=C/c1ccc(-c2ncn(-c3ccc(OC(F)(F)F)cc3)n2)cc1 [F11, N-[2-(propan-2-yl)phenyl]-N′-[(E)-2-(4-{1-[4-(trifluoromethoxy)phenyl]-1H-1,2,4-triazol-3-yl}phenyl)ethenyl]dicarbonimidothioic diamide] the “BAW rating (percent mortality class)” value [1] was “A (50-100)” and the “CL rating (percent mortality class)” value [2] was “A (50-100)”.

For CC(C)c1ccccc1N1C(=O)CS/C1=N\C(=O)N/C=C/c1ccc(-c2ncn(-c3ccc(OC(F)(F)F)cc3)n2)cc1 [F12], the “BAW rating (percent mortality class)” value [1] was “A (50-100)” and the “CL rating (percent mortality class)” value [2] was “A (50-100)”.

C/C(=C\NC(=O)/N=C1\SCC(=O)N1c1ccccc1C(C)C)c1ccc(-c2ncn(-c3ccc(OC(F)(F)F)cc3)n2)cc1 [F13] was tested, and the “BAW rating (percent mortality class)” value [1] was “A (50-100)” and the “CL rating (percent mortality class)” value [2] was “A (50-100)”.

With CC(C)c1ccccc1NC(=S)NC(=O)NCc1ccc(-c2ncn(-c3ccc(OC(F)(F)C(F)(F)F)cc3)n2)cc1 [F15, N-(4-{1-[4-(pentafluoroethoxy)phenyl]-1H-1,2,4-triazol-3-yl}benzyl)-N′-[2-(propan-2-yl)phenyl]dicarbonimidothioic diamide] the “BAW rating (percent mortality class)” value [1] was “A (50-100)” and the “CL rating (percent mortality class)” value [2] was “A (50-100)”.

Cc1ccc(C(C)C)c(NC(=S)NC(=O)NCc2ccc(-c3ncn(-c4ccc(OC(F)(F)C(F)(F)F)cc4)n3)cc2)c1 [F16, N-[5-methyl-2-(propan-2-yl)phenyl]-N′-(4-{1-[4-(pentafluoroethoxy)phenyl]-1H-1,2,4-triazol-3-yl}benzyl)dicarbonimidothioic diamide] was tested, and the “BAW rating (percent mortality class)” value [1] was “A (50-100)” and the “CL rating (percent mortality class)” value [2] was “A (50-100)”.

With CC(C)c1ccccc1N1C(=O)CS/C1=N\C(=O)NCc1ccc(-c2ncn(-c3ccc(OC(F)(F)F)cc3)n2)cc1 [F17, (Z)-1-(3-(2-isopropylphenyl)-4-oxothiazolidin-2-ylidene)-3-(4-(1-(4-(trifluoromethoxy)phenyl)-1H-1,2,4-triazol-3-yl)benzyl)urea] the “BAW rating (percent mortality class)” value [1] was “A (50-100)” and the “CL rating (percent mortality class)” value [2] was “A (50-100)”.

With CC(C)c1ccccc1N1C(=O)CS/C1=N\C(=O)NCc1ccc(-c2ncn(-c3ccc(OC(F)(F)C(F)(F)F)cc3)n2)cc1 [F18, (Z)-1-(3-(2-isopropylphenyl)-4-oxothiazolidin-2-ylidene)-3-(4-(1-(4-(perfluoroethoxy)phenyl)-1H-1,2,4-triazol-3-yl)benzyl)urea] the “BAW rating (percent mortality class)” value [1] was “A (50-100)” and the “CL rating (percent mortality class)” value [2] was “A (50-100)”.

With Cc1ccc(C(C)C)c(N2C(=O)CS/C2=N\C(=O)NCc2ccc(-c3ncn(-c4ccc(OC(F)(F)C(F)(F)F)cc4)n3)cc2)c1 [F19, (Z)-1-(3-(2-isopropyl-5-methylphenyl)-4-oxothiazolidin-2-ylidene)-3-(4-(1-(4-(perfluoroethoxy)phenyl)-1H-1,2,4-triazol-3-yl)benzyl)urea] the “BAW rating (percent mortality class)” value [1] was “A (50-100)” and the “CL rating (percent mortality class)” value [2] was “A (50-100)”.

For CC(C)c1ccccc1NC(=S)NC(=O)NC1CC1c1ccc(-c2ncn(-c3ccc(OC(F)(F)F)cc3)n2)cc1 (centres unmarked) [F22, N-[2-(propan-2-yl)phenyl]-N′-[2-(4-{1-[4-(trifluoromethoxy)phenyl]-1H-1,2,4-triazol-3-yl}phenyl)cyclopropyl]dicarbonimidothioic diamide], the “BAW rating (percent mortality class)” value [1] was “A (50-100)” and the “CL rating (percent mortality class)” value [2] was “A (50-100)”.

CCCc1ccccc1NC(=S)NC(=O)NC1CC1c1ccc(-c2ncn(-c3ccc(OC(F)(F)F)cc3)n2)cc1 (centres unmarked) [F23] was tested, and the “BAW rating (percent mortality class)” value [1] was “A (50-100)” and the “CL rating (percent mortality class)” value [2] was “A (50-100)”.

In the case of CCc1cccc(C)c1NC(=S)NC(=O)NC1CC1c1ccc(-c2ncn(-c3ccc(OC(F)(F)F)cc3)n2)cc1 (centres unmarked) [F24, N-(2-ethyl-6-methylphenyl)-N′-[2-(4-{1-[4-(trifluoromethoxy)phenyl]-1H-1,2,4-triazol-3-yl}phenyl)cyclopropyl]dicarbonimidothioic diamide], the “BAW rating (percent mortality class)” value [1] is reported as “A (50-100)” and the “CL rating (percent mortality class)” value [2] is reported as “A (50-100)”.

In the case of Cc1cccc(C)c1NC(=S)NC(=O)NC1CC1c1ccc(-c2ncn(-c3ccc(OC(F)(F)F)cc3)n2)cc1 (centres unmarked) [F25], the “BAW rating (percent mortality class)” value [1] is reported as “A (50-100)” and the “CL rating (percent mortality class)” value [2] is reported as “A (50-100)”.

In the case of Cc1ccc(C(C)C)c(NC(=S)NC(=O)NCc2ccc(-c3ncn(-c4ccc(OC(F)(F)F)cc4)n3)cc2)c1 [F35, N-[5-methyl-2-(propan-2-yl)phenyl]-N′-(4-{1-[4-(trifluoromethoxy)phenyl]-1H-1,2,4-triazol-3-yl}benzyl)dicarbonimidothioic diamide], the “BAW rating (percent mortality class)” value [1] is reported as “A (50-100)”.

Cc1ccc(-n2c(C)cs/c2=N\C(=O)NCc2ccc(-c3ncn(-c4ccc(OC(F)(F)F)cc4)n3)cc2)c(C(C)C)c1 [P20, (Z)-1-(3-(2-isopropyl-4-methylphenyl)-4-methylthiazol-2(3H)-ylidene)-3-(4-(1-(4-(trifluoromethoxy)phenyl)-1H-1,2,4-triazol-3-yl)benzyl)urea] showed a pest or weed control at 50 µg/cm2 [2] of 50 to 100%.

Cc1ccc(C(C)C)c(N2C(=O)CS/C2=N\C(=O)NCCc2cccc(-c3ncn(-c4ccc(OC(F)(F)F)cc4)n3)c2)c1 [P81, (Z)-1-(3-(2-isopropyl-5-methylphenyl)-4-oxothiazolidin-2-ylidene)-3-(3-(1-(4-(trifluoromethoxy)phenyl)-1H-1,2,4-triazol-3-yl)phenethyl)urea] showed a pest or weed control at 50 µg/cm2 [2] of 50 to 100%.

Cc1cccc(C)c1N1C(=O)CS/C1=N\C(=O)NCCCCc1ccc(-c2ncn(-c3ccc(OC(F)(F)F)cc3)n2)cc1 [P152, (Z)-1-(3-(2,6-dimethylphenyl)-4-oxothiazolidin-2-ylidene)-3-(4-(4-(1-(4-(trifluoromethoxy)phenyl)-1H-1,2,4-triazol-3-yl)phenyl)butyl)urea] showed a pest or weed control at 50 µg/cm2 [2] of 50 to 100%.

Work on CCc1cccc(C)c1N1C(=O)CS/C1=N\C(=O)NCCCCc1ccc(-c2ncn(-c3ccc(OC(F)(F)F)cc3)n2)cc1 [P153, (Z)-1-(3-(2-ethyl-6-methylphenyl)-4-oxothiazolidin-2-ylidene)-3-(4-(4-(1-(4-(trifluoromethoxy)phenyl)-1H-1,2,4-triazol-3-yl)phenyl)butyl)urea] yielded a pest or weed control at 50 µg/cm2 [2] of 50 to 100%.

For Cc1ccccc1N1C(=O)CS/C1=N\C(=O)NCCCCc1cccc(-c2ncn(-c3ccc(OC(F)(F)F)cc3)n2)c1 [P170, (Z)-1-(4-oxo-3-(o-tolyl)thiazolidin-2-ylidene)-3-(4-(3-(1-(4-(trifluoromethoxy)phenyl)-1H-1,2,4-triazol-3-yl)phenyl)butyl)urea], the pest or weed control at 50 µg/cm2 [2] was 50 to 100%.

Work on Cc1ccc(N2C(=O)CS/C2=N\C(=O)NCCCCc2cccc(-c3ncn(-c4ccc(OC(F)(F)F)cc4)n3)c2)c(C(C)C)c1 [P180, (Z)-1-(3-(2-isopropyl-4-methylphenyl)-4-oxothiazolidin-2-ylidene)-3-(4-(3-(1-(4-(trifluoromethoxy)phenyl)-1H-1,2,4-triazol-3-yl)phenyl)butyl)urea] yielded a pest or weed control at 50 µg/cm2 [2] of 50 to 100%.

Work on CCC(CNC(=O)/N=C1\SCC(=O)N1c1ccc(F)cc1C(C)C)c1ccc(-c2ncn(-c3ccc(OC(F)(F)F)cc3)n2)cc1 (centres unmarked) [P1163, (Z)-1-(3-(4-fluoro-2-isopropylphenyl)-4-oxothiazolidin-2-ylidene)-3-(2-(4-(1-(4-(trifluoromethoxy)phenyl)-1H-1,2,4-triazol-3-yl)phenyl)butyl)urea] yielded a pest or weed control at 50 µg/cm2 ([1]; Spodoptera exigua, read-out: BAW) of 50 to 100%.
